# Reference: US20160090578A1, “ENZYMES […] GLYCOSYLATION OF POLYPHENOLS” (priority 2013, published 2016)
# Columns and labels:
# [1] = system: MgtT; settings: E. coli DH5α pDrive::mgtT, whole cell catalysis
# Procedure: (§3) For the detection of flavonoid modifications in bacteria a biotransformation approach was used. Cultures were grown in LB medium with appropriate antibiotic overnight. Expression cultures were prepared as stated above for overproduction of enzymes. The cells were sedimented by centrifugation at 4,500 g and resuspended in 50 mM sodium phosphate buffer pH 7 supplemented with 1% (w/v) α-D-glucose. Biotransformations with a final concentration of 100 μM flavonoid inoculated from stock solutions of 100 mM in DMSO, i.e. 0.1%, were incubated in Erlenmeyer flasks at 30° C. and 175 rpm up to 24 hours. Samples of 4 mL were withdrawn and acidified with 100 μL H3PO4 aq for extraction in 2 mL ethyl acetate. They were shaken for 1 minute and phase separated by centrifugation at 2,000 g and 4° C. The supernatant was applied in TLC analysis. For quantification, samples of 100 μL were taken and dissolved 1/10 in ethyl acetate/acetic acid 3:1. These acidified ethyl acetate samples were centrifuged at 10,000 g. The supernatant was used for quantitative TLC analysis as stated below.
# [2] = system: MgtB; test: Biocatalytic reactions with purified recombinant His-tagged MgtB and UDP-glucose, quantified by TLC; format: biochemical, Bacillus sp. HH1500; settings: for Acceptor substrate modification by His10-MgtB (in words): 500 μM UDP-α-D-glucose as donor, 100 μM acceptor substrate; for Conversion (%): 1 mL, 37° C., 2 hours, triplicate, 500 μM UDP-glucose, 100 μM flavonoid, 5 μg/mL purified recombinant MgtB
# Procedure: (§1) The supernatant transferred into HPLC flat bottom vials was used for TLC analysis. Samples of 20 μL were applied on 20×10 cm^2 (HP)TLC silica 60 F254 plates (Merck KGaA, Darmstadt, Germany) versus 200 pmol of reference flavonoids. To avoid carryover of substances, i.e. prevent false positives, samples were spotted with double syringe rinsing in between by the ATS 4. The sampled TLC plates were developed in ethyl acetate/acetic acid/formic acid/water 100:11:11:27 (‘Universal Pflanzenlaufmittel’) (41). After separation the TLC plates were dried in an oven at 80° C. for five minutes. The absorbance of the separated bands was determined densitometrically depending on the absorbance maximum of the applied educt substances at 285 to 370 nm using the deuterium lamp in a TLC Scanner 3 (CAMAG, Muttenz, Switzerland). Subsequently, the substances on developed TLC plates were derivatized by dipping the plates in a methanolic solution of 1% (w/v) diphenyl boric acid β-aminoethyl ester (DPBA) (42) for one second using a Chromatogram Immersion Device (CAMAG, Muttenz, Switzerland) followed by drying the TLC plates in hot air with a fan. After two minutes the bands were visualized at 365 nm with a UV hand lamp and photographed. Alternatively, fluorescence of the bands was determined densitometrically by the TLC Scanner 3 depending on the absorbance maximum of the applied substances at 320 to 370 nm.
# (§2) Samples of 20 μL were sprayed by an ATS 4 (CAMAG, Muttenz, Switzerland) on HPTLC silica 60 F254 plates (Merck KGaA, Darmstadt, Germany) versus different amounts of respective standard educt and product substances. TLC plates were developed, dried, derivatized and analyzed as stated above. Regression curves were calculated from the peak area of the applied reference substances to determine the amount of produced and residual flavonoids.
# [3] = system: GtfC; test: Biotransformation assays with E. coli expressing recombinant GtfC, quantified by TLC; format: cell-based, Elbe river sediment metagenome; settings: for Conversion (%): whole-cell biotransformation, 50 mL, 50 mM sodium phosphate buffer pH 7.0, 1% (w/v) glucose, 200 μM flavonoid, 30° C., triplicate; for Conversion in GtfC biotransformation (in words): whole-cell biotransformation with E. coli expressing GtfC
# Procedure: The supernatant was applied in TLC analysis.
# as §1, §2
# [4] = system: MgtC; format: cell-based, Bacillus sp. BCG+1; settings: E. coli DH5α pDrive::mgtC, whole cell catalysis
# [5] = system: MgtW; settings: E. coli DH5α pDrive::mgtW, whole cell catalysis
# Procedure: as §3
SMILES,Acceptor substrate modification by His10-MgtB (in words) [2],Conversion (%) [2] [%],Conversion (%) [3] [%],Reaction in biotransformation with MgtC [4],also measured
"Cc1cc(=O)oc2cc(O)ccc12 [4-Methylumbelliferone, 7-Hydroxy-4-methylcoumarin]",–,–,–,–,Reaction in biotransformation with MgtT [1]: shown
O=c1c(-c2ccc(O)cc2)coc2cc(O)cc(O)c12 [Genistein],modified with high yields,72,68,–,–
O=c1c(O)c(-c2ccc(O)cc2)oc2cc(O)cc(O)c12 [Kaempferol],modified with high yields,~100,~100,–,Conversion (%) ([2]; listed as kaempferol): approximately 100%
O=c1cc(-c2ccc(O)c(O)c2)oc2cc(O)cc(O)c12 [Luteolin],modified with high yields,82,86,shown,–
COc1ccc(-c2cc(=O)c3ccc(O)cc3o2)cc1 [Pratol],–,–,–,–,Conversion in GtfC biotransformation (in words) [3]: converted weakly
O=c1c(O)c(-c2ccc(O)c(O)c2)oc2cc(O)cc(O)c12 [Quercetin],modified with high yields,~100,~100,shown,Reaction in biotransformation with MgtW [5]: shown; Conversion (%) ([2]; listed as quercetin): approximately 100%; Conversion in GtfC biotransformation (in words) [3]: transformed almost completely
"O=C(/C=C/c1ccc(O)cc1)OC[C@H]1O[C@@H](Oc2c(-c3ccc(O)cc3)oc3cc(O)cc(O)c3c2=O)[C@H](O)[C@@H](O)[C@@H]1O [Tiliroside, kaempferol-3-O-6″-coumaroyl-glucoside]",modified with high yields,83,–,–,–
COc1cc(O)c(CC=C(C)C)c(O)c1C(=O)/C=C/c1ccc(O)cc1 [Xanthohumol],–,–,52,–,–
O=c1cc(-c2ccc(O)cc2)oc2cc(O)cc(O)c12 [apigenin],–,–,–,shown,–
COc1cc([C@@H]2CC(=O)c3c(O)cc(O)cc3O2)ccc1O [homoeriodytiol],–,–,–,shown,Reaction in biotransformation with MgtW [5]: shown; Reaction in biotransformation with MgtT [1]: shown
Cc1cc(=O)c2c(O)cc(O)cc2o1 [noreugenin],–,–,–,shown,–
O=C(CCc1ccc(O)cc1)c1c(O)cc(O)cc1O [phloretin],–,–,–,shown,Reaction in biotransformation with MgtW [5]: shown; Reaction in biotransformation with MgtT [1]: shown
Oc1ccc(/C=C/c2cc(O)cc(O)c2)cc1 [t-Resveratrol],–,–,96,–,–
